# From patent US9585862B2, “Patch containing rivastigmine” (priority 2011, dated 2017)
# Test: Compatibility test of adhesives mixed with rivastigmine free base (appearance, miscibility, total impurity)
# Type: physicochemical
# Description: In order to adopt a suitable adhesive for preparing a rivastigmine patch, each of various adhesives was mixed with rivastigmine free base to confirm the appearance, miscibility and compatibility thereof.
# For a compatibility test, ten adhesives were used as a candidate material, considering the kind of a polymer and functional group present in the composition of each adhesive, the presence of a crosslinker and a solvent present in the composition. Details of the ten adhesives are shown in Table 2, wherein each product listed under the column “Product name” is an adhesive sold under the respective listed trademark.
# Specifically, adhesives containing an acryl- or acrylate-vinylate-based polymer and having no functional group or a hydroxyl or carboxyl group were used. Also, the presence of a crosslinker in the adhesives was evaluated as an important factor to show a compatibility difference. The appearance and miscibility of each adhesive are shown in Table 3, wherein each “Durotak” listed under the column “Ingredient” is a different adhesive sold under the respective trademark.
# For example, in the case that the adhesive sold under the trademark DUROTAK 87-202A was used, the color changed to yellow, while in the cases that the adhesives sold under the trademarks DUROTAK 87-2852, 87-2516 and 87-2052 were used, the color changed to brown. The adhesives undergoing a significant color change were commonly confirmed to have a crosslinker.
smiles,measurement,setting,value
"CCN(C)C(=O)Oc1cccc([C@H](C)N(C)C)c1 [Rivastigmine base, (S)-N-ethyl-3-[(1-dimethylamino)ethyl]-N-methyl-phenyl-carbamate]",Miscibility 2 wks,"active ingredient with adhesive, 2 wks",◯
same,Miscibility Initial,"active ingredient with adhesive, initial",◯
same,Total impurity (% impurity) 2 wks,"rivastigmine base alone or mixed with adhesive, 2 wks",0.07%
same,Total impurity (% impurity) Initial,"rivastigmine base alone or mixed with adhesive, initial",0.03%
